From patent US11459306B2, “Compounds, compositions, and methods for treating T-cell acute lymphoblastic leukemia” (The Trustees of Columbia University in the City of New York, priority 2017, dated 2022)

Key:
[1] = Pharmacokinetics relative to CAL-130; format: in vivo
[2] = test system: T-ALL; test: Mice with genetically induced T-ALL expressing luciferase treated with DWL-PI3K-3; format: in vivo; conditions: 10 mg/kg every 12 h for 7 days; luciferin signal and Ki67/thy1.2 positive population
[3] = biological target: T1, PIK3CA (PI3Kα) (Homo sapiens, UniProt P42336); test: KINOMEscan competition binding assay (DiscoverX); conditions: DiscoveRx gene symbol PIK3CA (PI3Kα)
T1 construct: purchased DiscoverX (KINOMEscan); host or cells: E. coli BL21-derived host (T7 phage) or HEK-293
Method: (§1) The compounds were tested using KINOMEscan™ (DiscoverX), which is based on a competition binding assay that quantitatively measures the ability of a compound to compete with an immobilized, active-site directed ligand. The assay is performed by combining three components: DNA-tagged kinase; immobilized ligand; and a test compound. The ability of the test compound to compete with the immobilized ligand is measured via quantitative PCR of the DNA tag.
(§2) For most assays, kinase-tagged T7 phage strains were prepared in an E. coli host derived from the BL21 strain. E. coli were grown to log-phase and infected with T7 phage and incubated with shaking at 32° C. until lysis. The lysates were centrifuged and filtered to remove cell debris. The remaining kinases were produced in HEK-293 cells and subsequently tagged with DNA for qPCR detection. Streptavidin-coated magnetic beads were treated with biotinylated small molecule ligands for 30 minutes at room temperature to generate affinity resins for kinase assays. The liganded beads were blocked with excess biotin and washed with blocking buffer (SeaBlock (Pierce), 1% BSA, 0.05% Tween 20, 1 mM DTT) to remove unbound ligand and to reduce non-specific binding. Binding reactions were assembled by combining kinases, liganded affinity beads, and test compounds in 1× binding buffer (20% SeaBlock, 0.17×PBS, 0.05% Tween 20, 6 mM DTT). Test compounds were prepared as 111× stocks in 100% DMSO. Kds were determined using an 11-point 3-fold compound dilution series with three DMSO control points. All compounds for Kd measurements are distributed by acoustic transfer (non-contact dispensing) in 100% DMSO. The compounds were then diluted directly into the assays such that the final concentration of DMSO was 0.9%. All reactions performed in polypropylene 384-well plate. Each was a final volume of 0.02 ml. The assay plates were incubated at room temperature with shaking for 1 hour and the affinity beads were washed with wash buffer (1×PBS, 0.05% Tween 20). The beads were then re-suspended in elution buffer (1×PBS, 0.05% Tween 20, 0.5 μM non-biotinylated affinity ligand) and incubated at room temperature with shaking for 30 minutes. The kinase concentration in the eluates was measured by qPCR.
(§3) An 11-point 3-fold serial dilution of each test compound was prepared in 100% DMSO at 100× final test concentration and subsequently diluted to 1× in the assay (final DMSO concentration=1%). Most Kds were determined using a compound top concentration=30,000 nM. If the initial Kd determined was <0.5 nM (the lowest concentration tested), the measurement was repeated with a serial dilution starting at a lower top concentration.
(§4) Binding constants (Kds) were calculated with a standard dose-response curve using the Hill equation: […]
(§5) The Hill Slope was set to −1. Curves were fitted using a non-linear least square fit with the Levenberg-Marquardt algorithm.

[4] = biological target: T2, PIK3CD (Homo sapiens, UniProt O00329); test: KINOMEscan competition binding assay (DiscoverX); conditions: DiscoveRx gene symbol PIK3CD (b251 prints: PI3Kγ)
T2 construct: purchased DiscoverX (KINOMEscan); host or cells: E. coli BL21-derived host (T7 phage) or HEK-293
T2 sequence (O00329 1-1044): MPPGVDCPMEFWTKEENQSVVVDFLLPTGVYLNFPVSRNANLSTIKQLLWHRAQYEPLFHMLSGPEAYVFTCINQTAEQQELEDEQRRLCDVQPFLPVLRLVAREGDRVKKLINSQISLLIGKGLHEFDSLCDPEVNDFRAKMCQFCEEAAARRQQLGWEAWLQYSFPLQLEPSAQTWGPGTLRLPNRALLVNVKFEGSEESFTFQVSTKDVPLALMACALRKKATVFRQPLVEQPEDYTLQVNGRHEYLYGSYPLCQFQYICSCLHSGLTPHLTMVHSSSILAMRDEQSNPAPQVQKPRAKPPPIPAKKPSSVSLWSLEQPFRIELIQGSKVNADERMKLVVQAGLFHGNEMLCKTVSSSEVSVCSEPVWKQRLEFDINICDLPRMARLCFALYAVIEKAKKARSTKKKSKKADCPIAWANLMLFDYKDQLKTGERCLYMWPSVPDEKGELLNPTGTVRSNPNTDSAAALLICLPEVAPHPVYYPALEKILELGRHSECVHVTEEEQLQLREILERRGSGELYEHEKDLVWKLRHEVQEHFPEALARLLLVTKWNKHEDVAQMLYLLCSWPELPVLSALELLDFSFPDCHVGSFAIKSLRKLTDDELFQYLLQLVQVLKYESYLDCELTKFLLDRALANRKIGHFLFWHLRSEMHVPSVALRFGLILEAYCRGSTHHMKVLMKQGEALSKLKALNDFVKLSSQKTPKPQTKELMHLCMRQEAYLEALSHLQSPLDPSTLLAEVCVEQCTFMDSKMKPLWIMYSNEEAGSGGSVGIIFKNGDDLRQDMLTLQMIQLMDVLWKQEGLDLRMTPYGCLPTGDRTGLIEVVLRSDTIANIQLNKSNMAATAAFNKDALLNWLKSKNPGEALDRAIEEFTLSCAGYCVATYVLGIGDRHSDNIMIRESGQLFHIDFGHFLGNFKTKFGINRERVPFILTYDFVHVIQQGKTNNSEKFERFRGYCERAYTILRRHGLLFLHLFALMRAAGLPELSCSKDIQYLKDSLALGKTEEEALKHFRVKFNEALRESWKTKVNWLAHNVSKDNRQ
Method: as §1, §2, §3, §4, §5

[5] = biological target: T3, PIK3CG (Homo sapiens, UniProt P48736); test: KINOMEscan competition binding assay (DiscoverX); conditions: DiscoveRx gene symbol PIK3CG (b251 prints: PI3Kδ)
T3 construct: purchased DiscoverX (KINOMEscan); host or cells: E. coli BL21-derived host (T7 phage) or HEK-293
Method: as §1, §2, §3, §4, §5

[6] = biological target: T4, PIK3CB (PI3Kβ) (Homo sapiens, UniProt P42338); test: KINOMEscan competition binding assay (DiscoverX); conditions: DiscoveRx gene symbol PIK3CB (PI3Kβ)
T4 construct: purchased DiscoverX (KINOMEscan); host or cells: E. coli BL21-derived host (T7 phage) or HEK-293
Method: as §1, §2, §3, §4, §5

[7] = test system: T-ALL cell line; test: T-ALL cell viability / cell death; format: cell-based, murine
Method: Compounds DWL-PI3K-1, DWL-PI3K-2, DWL-PI3K-3, DWL-PI3K-4, DWL-PI3K-5, DWL-PI3K-6 and DWL-PI3K-7, and reference compounds CAL-130, tenalisib, duvelisib were evaluated for efficacy (cell viability by measuring ATP (CellTiter-Glo) or propidium iodide (PI) uptake) against a number of cancer cells, including LMO-2-007, OCI-LY-10, HH, H9, PF382 and CCRF-CEM.

T4 sequence (P42338 whole entry): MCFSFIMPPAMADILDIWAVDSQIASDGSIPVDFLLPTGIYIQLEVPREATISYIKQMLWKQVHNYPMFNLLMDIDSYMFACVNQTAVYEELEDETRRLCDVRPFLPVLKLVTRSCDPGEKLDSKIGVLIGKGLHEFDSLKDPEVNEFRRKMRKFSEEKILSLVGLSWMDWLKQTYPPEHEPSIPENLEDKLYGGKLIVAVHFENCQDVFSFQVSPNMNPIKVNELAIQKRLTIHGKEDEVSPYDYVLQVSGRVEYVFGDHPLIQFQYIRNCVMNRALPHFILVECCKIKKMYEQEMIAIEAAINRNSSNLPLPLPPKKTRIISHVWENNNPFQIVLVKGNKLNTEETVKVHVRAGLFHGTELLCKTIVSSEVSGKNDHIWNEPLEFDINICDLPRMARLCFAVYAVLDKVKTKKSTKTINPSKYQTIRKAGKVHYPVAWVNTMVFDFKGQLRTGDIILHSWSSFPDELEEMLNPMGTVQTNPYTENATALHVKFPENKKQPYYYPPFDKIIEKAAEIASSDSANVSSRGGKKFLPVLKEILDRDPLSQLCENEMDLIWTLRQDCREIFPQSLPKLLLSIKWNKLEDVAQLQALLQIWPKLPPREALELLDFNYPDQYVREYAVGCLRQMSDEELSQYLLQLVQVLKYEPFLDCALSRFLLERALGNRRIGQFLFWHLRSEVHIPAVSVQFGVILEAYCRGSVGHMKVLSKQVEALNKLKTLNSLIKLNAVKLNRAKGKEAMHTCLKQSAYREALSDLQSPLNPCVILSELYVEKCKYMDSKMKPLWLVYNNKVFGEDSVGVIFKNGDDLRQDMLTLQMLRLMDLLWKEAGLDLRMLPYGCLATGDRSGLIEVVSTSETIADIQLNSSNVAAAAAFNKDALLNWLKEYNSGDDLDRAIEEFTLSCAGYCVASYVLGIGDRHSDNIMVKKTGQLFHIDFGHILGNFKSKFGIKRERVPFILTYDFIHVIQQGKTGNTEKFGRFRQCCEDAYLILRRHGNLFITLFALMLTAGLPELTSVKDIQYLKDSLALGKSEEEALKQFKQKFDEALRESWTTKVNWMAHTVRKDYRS
T3 sequence (P48736 whole entry): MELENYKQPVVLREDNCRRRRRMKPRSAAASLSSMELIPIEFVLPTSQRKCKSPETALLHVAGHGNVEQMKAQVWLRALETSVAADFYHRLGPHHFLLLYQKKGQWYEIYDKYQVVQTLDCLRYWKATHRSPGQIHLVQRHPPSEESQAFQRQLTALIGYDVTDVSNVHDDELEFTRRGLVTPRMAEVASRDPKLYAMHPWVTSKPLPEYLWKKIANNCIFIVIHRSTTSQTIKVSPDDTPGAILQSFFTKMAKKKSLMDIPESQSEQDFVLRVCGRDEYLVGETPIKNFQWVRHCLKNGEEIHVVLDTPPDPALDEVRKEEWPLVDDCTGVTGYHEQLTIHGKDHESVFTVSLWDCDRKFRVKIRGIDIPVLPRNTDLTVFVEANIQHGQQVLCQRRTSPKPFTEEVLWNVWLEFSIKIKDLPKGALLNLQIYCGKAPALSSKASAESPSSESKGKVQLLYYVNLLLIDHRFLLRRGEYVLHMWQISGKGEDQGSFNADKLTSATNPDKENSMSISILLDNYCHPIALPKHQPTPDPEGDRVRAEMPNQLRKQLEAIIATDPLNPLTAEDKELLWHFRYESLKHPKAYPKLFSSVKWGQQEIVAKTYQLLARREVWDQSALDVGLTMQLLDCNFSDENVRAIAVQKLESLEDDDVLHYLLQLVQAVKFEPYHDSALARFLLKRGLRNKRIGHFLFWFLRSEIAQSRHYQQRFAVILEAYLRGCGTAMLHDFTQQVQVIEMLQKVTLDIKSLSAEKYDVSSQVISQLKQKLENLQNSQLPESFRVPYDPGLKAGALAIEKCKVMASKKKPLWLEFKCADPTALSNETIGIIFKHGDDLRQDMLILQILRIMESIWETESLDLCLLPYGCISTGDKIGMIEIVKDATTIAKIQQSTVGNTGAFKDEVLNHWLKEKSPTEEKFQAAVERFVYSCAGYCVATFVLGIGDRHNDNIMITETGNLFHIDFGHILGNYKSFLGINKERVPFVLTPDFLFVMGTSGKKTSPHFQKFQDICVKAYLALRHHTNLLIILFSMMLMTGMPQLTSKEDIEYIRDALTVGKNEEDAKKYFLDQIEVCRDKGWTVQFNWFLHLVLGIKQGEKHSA
T1 sequence (P42336 whole entry): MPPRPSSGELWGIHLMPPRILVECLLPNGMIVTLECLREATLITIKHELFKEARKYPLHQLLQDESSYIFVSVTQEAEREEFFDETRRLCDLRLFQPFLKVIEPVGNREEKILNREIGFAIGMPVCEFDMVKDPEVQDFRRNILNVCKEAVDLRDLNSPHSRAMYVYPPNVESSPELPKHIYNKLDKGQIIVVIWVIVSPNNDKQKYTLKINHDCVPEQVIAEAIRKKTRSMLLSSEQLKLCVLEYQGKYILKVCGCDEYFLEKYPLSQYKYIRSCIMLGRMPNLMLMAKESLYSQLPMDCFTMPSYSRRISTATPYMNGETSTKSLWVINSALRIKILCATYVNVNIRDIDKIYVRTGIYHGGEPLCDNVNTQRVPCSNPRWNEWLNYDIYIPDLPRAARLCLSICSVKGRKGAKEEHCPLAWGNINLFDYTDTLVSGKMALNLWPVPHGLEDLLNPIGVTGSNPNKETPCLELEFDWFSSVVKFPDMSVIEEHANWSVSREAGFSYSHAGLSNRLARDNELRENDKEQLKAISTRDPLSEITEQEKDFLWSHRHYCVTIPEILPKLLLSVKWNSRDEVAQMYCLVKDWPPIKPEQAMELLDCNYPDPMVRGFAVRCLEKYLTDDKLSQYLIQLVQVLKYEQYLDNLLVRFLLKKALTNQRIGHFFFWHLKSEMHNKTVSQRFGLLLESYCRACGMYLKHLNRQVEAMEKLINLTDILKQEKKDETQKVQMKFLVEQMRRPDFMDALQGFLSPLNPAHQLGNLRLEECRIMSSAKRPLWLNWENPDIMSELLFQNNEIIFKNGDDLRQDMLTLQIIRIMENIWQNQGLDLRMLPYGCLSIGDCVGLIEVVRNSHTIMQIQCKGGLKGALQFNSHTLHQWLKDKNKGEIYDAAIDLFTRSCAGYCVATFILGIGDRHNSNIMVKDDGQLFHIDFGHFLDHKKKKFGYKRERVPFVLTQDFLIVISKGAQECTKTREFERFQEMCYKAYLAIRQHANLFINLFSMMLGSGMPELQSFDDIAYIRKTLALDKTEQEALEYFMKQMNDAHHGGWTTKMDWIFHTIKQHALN

## C[C@H](Nc1nc(N)nc(N)c1C#N)c1cc2cccc(Cl)c2c(=O)n1-c1ccccc1 [DWL-PI3K-3, (S)-2,4-diamino-6-((1-(8-chloro-1-oxo-2-phenyl-1,2-dihydroisoquinolin-3-yl)ethyl)amino)pyrimidine-5-carbonitrile]
[1]
  pharmacokinetics: better pharmacokinetics
[2]
  tumor burden: significant reduction in tumor burden
[3]
  Kd: 4 nM
[4]
  Kd: 0.14 nM
[5]
  Kd: 0.12 nM
[6]
  Kd: 0.084 nM
[7]; cultured T-ALL cells
  efficacy in inducing T-ALL cell death relative to CAL-130: greater efficacy than CAL-130
[7]; relative to CAL-130
  amount needed relative to CAL-130 to achieve a similar reduction in tumor cell survival: about 10 fold less
